Patent publication US20240199676A1, “ANTIVIRAL COMPOUNDS AND METHODS OF MAKING AND USING THE SAME” (Gilead Sciences, Inc., priority 2022, published 2024)
Where two headings read alike, the source gives them in different places.

Assays:
[1] = GI S9 stability (Ex. Z), human intestinal S9; type: in vitro ADME; settings: human intestinal S9, 1.0 mg/mL protein, 2 μM substrate, pH 7.4, read-out: GIS9 Human T½ (per Ex. Z)
Protocol: Example Z: GI S9 stability data:
Stock solutions of test compounds in dimethyl sulfoxide (DMSO) having a final concentration of 10 mM were prepared and used in all experiments. Sekisui XenoTech (Kansas City, KS) provided pooled intestinal S9 fractions. All other chemicals were purchased from Sigma-Aldrich (St. Louis, MO) or VWR (West Chester, PA). Internal Standard/Quench (IS/Q) used to stop reactions was 100 nM labetalol in (by volume) methanol (10%) and acetonitrile (90%).
Stability in Intestinal S9 Fractions: Duplicate aliquots of test compound or positive control substrate were added to S9 stock diluted with phosphate buffered saline (137 mM NaCl, 2.7 mM KCl, 10 mM phosphate buffer), pH 7.4, to obtain a protein concentration of 1.0 mg/mL. The metabolic reactions were initiated by the addition of the substrates to the S9 reaction mixture to a final concentration of 2 μM. At 0, 10, 20, 30, 60 and 120 min, 25 μL aliquots of the reaction mixture were transferred to plates containing 225 μl of IS/Q solution. After quenching, the plates were centrifuged at 3000×g for 30 minutes. 150 μL aliquots of each supernatant were dried down then reconstituted with 300 μL water. Aliquots (10 μL) of the prepared samples were analyzed on a Thermo Q-Exactive mass spectrometer as described below.
Liquid Chromatography—Mass Spectrometry: Quantification of test compounds and control substrate was performed by analyte/internal standard peak area ratio (PAR) values measured on a Thermo Q-Exactive mass spectrometer coupled to a Dionex UltiMate 3000 HPLC with a Leap Technologies HTC PAL autosampler. The column used for analysis was a Waters Acquity BEH C18 (1.7 μm particle size, 2.1×50 mm). Mobile phase A consisted of 0.1% (v/v) formic acid in water. Mobile phase B consisted of 0.1% (v/v) formic acid in acetonitrile. Elution of analytes was achieved by a series of linear gradients varying the proportions of A and B. The mass spectrometer was calibrated on a weekly basis and mass tolerance of 5 ppm was used.
Metabolic stabilities in S9 fractions were determined by measuring the rates of disappearance of test compound and positive control substrate.
Data (% of substrate remaining) were plotted on a semi-log scale and fitted using an exponential decline model:
Where Ct—% of substrate remaining at time=t; C0—% of substrate remaining at time=0; t—time; T½—half-life The Half-life (T½) is determined by the following equation: […]
Assuming a first-order reaction, the slope (k) is extrapolated from the aforementioned plotted data.

[2] = tested on: Respiratory syncytial virus recombinant with luciferase (RSV-Luc5) in HEp-2 cells; assay: HEp-2 RSV-Luc5 384-well Assay (EC50 RSVFLUC Hep2-384 v2, Ex. V); type: cell-based; settings: human respiratory syncytial virus, HEp-2, 72 h, read-out: EC50 RSV FLuc Hep-2 384 V2 (per Ex. V)
Method in brief: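 HEp-2 cells (4,000/well) with 10-point 1:3 compound dilutions were infected with RSV-Luc5 at MOI 0.5 and incubated 3 days at 37 °C. Replication was read by One-Glo luminescence and normalized to remdesivir (0%) and DMSO (100%) controls. EC50 is the concentration reducing replication by 50%, from non-linear regression.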

| SMILES | half-life at 2 μM ([1]; pooled intestinal S9 fractions) | EC50 [2] | half-life at 2 μM [1] |
| --- | --- | --- | --- |
| N#C[C@]1(COC(=O)[C@H]2CCC(=O)O2)O[C@@H](c2ccc3c(N)ncnn23)[C@H](O)[C@@H]1O [Compound 25, ((2R,3S,4R,5S)-5-(4-aminopyrrolo[2,1-f][1,2,4]triazin-7-yl)-2-cyano-3,4-dihydroxytetrahydrofuran-2-yl)methyl (R)-5-oxotetrahydrofuran-2-carboxylate] | 3 min | 10.3 µM | – |
| CC(=O)OC[C@@]1(C#N)O[C@@H](c2ccc3c(N)ncnn23)[C@H](OC(C)=O)[C@@H]1OC(C)=O [Compound 28, (2R,3S,4S,5S)-2-(acetoxymethyl)-5-(4-aminopyrrolo[2,1-f][1,2,4]triazin-7-yl)-2-cyanotetrahydrofuran-3,4-diyl diacetate] | 5 min | 15.9 µM | – |
| CC(C)C(=O)Nc1ncnn2c([C@@H]3O[C@](C#N)(CO)[C@@H](O)[C@H]3O)ccc12 [Compound 30, N-(7-((2S,3R,4S,5R)-5-cyano-3,4-dihydroxy-5-(hydroxymethyl)tetrahydrofuran-2-yl)pyrrolo[2,1-f][1,2,4]triazin-4-yl)isobutyramide] | 789 min | > 50 µM | – |
| N#C[C@]1(COC(=O)C2CC3(CCC3)C2)O[C@@H](c2ccc3c(N)ncnn23)[C@H](O)[C@@H]1O [Compound 32, ((2R,3S,4R,5S)-5-(4-aminopyrrolo[2,1-f][1,2,4]triazin-7-yl)-2-cyano-3,4-dihydroxytetrahydrofuran-2-yl)methyl spiro[3.3]heptane-2-carboxylate] | 12 min | 16.4 µM | – |
| CC1(CC(=O)OC[C@@]2(C#N)O[C@@H](c3ccc4c(N)ncnn34)[C@H](O)[C@@H]2O)CCC1 [Compound 33, ((2R,3S,4R,5S)-5-(4-aminopyrrolo[2,1-f][1,2,4]triazin-7-yl)-2-cyano-3,4-dihydroxytetrahydrofuran-2-yl)methyl 2-(1-methylcyclobutyl)acetate] | 154 min | 23.4 µM | – |
| CCC(C)(C)C(=O)OC[C@@]1(C#N)O[C@@H](c2ccc3c(N)ncnn23)[C@H](O)[C@@H]1O [Compound 35, ((2R,3S,4R,5S)-5-(4-aminopyrrolo[2,1-f][1,2,4]triazin-7-yl)-2-cyano-3,4-dihydroxytetrahydrofuran-2-yl)methyl 2,2-dimethylbutanoate] | 273 min | 24.4 µM | – |
| CC(C)(C)CCC(=O)OC[C@@]1(C#N)O[C@@H](c2ccc3c(N)ncnn23)[C@H](O)[C@@H]1O [Compound 36, ((2R,3S,4R,5S)-5-(4-aminopyrrolo[2,1-f][1,2,4]triazin-7-yl)-2-cyano-3,4-dihydroxytetrahydrofuran-2-yl)methyl 4,4-dimethylpentanoate] | 11 min | 11.8 µM | – |
| N#C[C@]1(COC(=O)Cc2ccccc2)O[C@@H](c2ccc3c(N)ncnn23)[C@H](O)[C@@H]1O [Compound 38, ((2R,3S,4R,5S)-5-(4-aminopyrrolo[2,1-f][1,2,4]triazin-7-yl)-2-cyano-3,4-dihydroxytetrahydrofuran-2-yl)methyl 2-phenylacetate] | – | 18.9 µM | 28 min |
